Reference: PubChem BioAssay AID1259411 (Chemical Carcinogenesis Research Information System (CCRIS), 2018)
The source made the active and inactive calls. No rule for the calls is given here.

System: rodent carcinogenicity bioassays, tumor incidence
Assay: CCRIS carcinogenicity studies
Details: Species: RAT, Dose: 0, Dose: 0
Procedure, shortened: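 NCI-built, expert-reviewed records of carcinogenicity and related test outcomes (mutagenicity, tumor promotion/inhibition) compiled from published and report sources, historical span 1985-2011, not updated.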

[O]=[Co]
carcinogen call (Strain/Sex: SPRAGUE-DAWLEY/FEMALE, Route: INTRATRACHEAL, 2, 10 MG/KG EVERY 14 D FOR TOTAL DOSES OF 0, 78, 390 MG/KG (STUDY DURATION: 2 YR), 2, 10 MG/KG EVERY 14 D FOR TOTAL DOSES OF 0, 78, 390 MG/KG (STUDY DURATION: 2 YR)): inactive; negative
carcinogen call (Strain/Sex: SPRAGUE-DAWLEY/MALE,FEMALE, Route: INTRAPERITONEAL, 200 MG/KG EVERY 2 MO FOR TOTAL DOSES OF 0, 600 MG/KG, 200 MG/KG EVERY 2 MO FOR TOTAL DOSES OF 0, 600 MG/KG, Tumor Site: Type of Lesion: PERITONEUM: TUMORS): active; positive
carcinogen call (Strain/Sex: SPRAGUE-DAWLEY/MALE, Route: INTRATRACHEAL, 2, 10 MG/KG EVERY 14 D FOR TOTAL DOSES OF 0, 78, 390 MG/KG (STUDY DURATION: 2 YR), 2, 10 MG/KG EVERY 14 D FOR TOTAL DOSES OF 0, 78, 390 MG/KG (STUDY DURATION: 2 YR), Tumor Site: Type of Lesion: LUNG: TUMOR): active; positive
carcinogen call (Strain/Sex: SPRAGUE-DAWLEY/MALE, Route: SUBCUTANEOUS, 2 MG/KG 5/WK FOR TOTAL DOSES OF 0, 1000 MG/KG (STUDY DURATION: 2 YR), 2 MG/KG 5/WK FOR TOTAL DOSES OF 0, 1000 MG/KG (STUDY DURATION: 2 YR), Tumor Site: Type of Lesion: SUBCUTANEOUS TISSUE: TUMORS): active; positive
carcinogen call (Strain/Sex: SPRAGUE-DAWLEY/MALE, Route: SUBCUTANEOUS, 10 MG/KG 1/WK FOR TOTAL DOSES OF 0, 1000 MG/KG (STUDY DURATION: 2 YR), 10 MG/KG 1/WK FOR TOTAL DOSES OF 0, 1000 MG/KG (STUDY DURATION: 2 YR), Tumor Site: Type of Lesion: SUBCUTANEOUS TISSUE: TUMORS): active; positive
